According to US20120053165A1, “Novel Phenyl Imidazoles and Phenyl Triazoles As Gamma-Secretase Modulators” (Pfizer Inc., priority 2009, published 2012):
Structures can show the parent of a compound that is named as a salt.

Tested on: production of amyloid beta protein Aβ(1-42) in human WT-APP overexpressing CHO cells
Conditions: Homo sapiens, CHO, read-out: Aβ 42 IC50
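Further: Aβ(1-42) released into conditioned medium captured by ELISA after roughly 24 h compound exposure, vehicle and inhibitor controls defining maximal and minimal inhibition.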
Method: Cell-Based γ-Secretase Assay with ELISA Readout
The ability of compounds to modulate production of amyloid beta protein Aβ(1-42) was determined using human WT-APP overexpressing CHO cells. Cells were plated at 22,000 cells/100 μL well in 96 well tissue culture treated, clear plates (Falcon) in DMEM/F12 based medium and incubated for 24 hours at 37° C. […] Compounds were added in fresh medium to achieve 1% final DMSO. Appropriate vehicle and inhibitor controls were added to obtain maximum and minimum inhibition values for the assay before the plates were incubated for about 24 hours at 37° C.
Coating of ELISA assay plates was initiated by addition of 50 μL/well of an in house Aβ(1-42) specific antibody at (4 μg/mL) in 0.1 M NaHCO3 (pH 9.0) into black 384-well Maxisorp® plates (Nunc) and incubated overnight at 4° C. […] Ambient temperature incubation was allowed to proceed for a minimum of two hours before washing 2×100 μL with Wash Buffer (Dulbecco's PBS, 0.05% Tween 20). Assay Buffer (Dulbecco's PBS, 1.0% BSA (Sigma A7030), 0.05% Tween 20) 20 μL/well is then added.
After incubation overnight at 37° C., 5% CO2, 40 μL (in duplicate) of experimental conditioned media are transferred into wells of the blocked ELISA plates containing the capture antibody, followed by overnight incubation at 4° C.
After overnight incubation of the ELISA assay plates at 4° C., unbound Aβ peptides were removed thorough (4×100 μL) washes with Wash Buffer.

Q: `COc1cc(C(=O)NC2COc3ccc(Cl)cc32)ccc1-n1cnc(C)c1` (single isomer, unassigned) [Example 128, N-(5-chloro-2,3-dihydro-1-benzofuran-3-yl)-3-methoxy-4-(4-methyl-1H-imidazol-1-yl)benzamide] was tested. Which IC50 did it give?
A: 521 nM

Same assay, conditions: Homo sapiens, CHO, read-out: Aβ 42 IC50, Geometric mean of 2-8 determinations; human WT-APP overexpressing CHO cells

Q: How did the IC50 turn out when `COc1cc(C(=O)NC2COc3c(F)cc(Cl)cc32)ccc1-n1cnc(C)c1` (single isomer, unassigned) [Example 127, N-(5-chloro-7-fluoro-2,3-dihydro-1-benzofuran-3-yl)-3-methoxy-4-(4-methyl-1H-imidazol-1-yl)benzamide trifluoroacetate salt] was run?
A: 521 nM

Q: With `COc1cc(C(=O)NCc2csc3ccc(Cl)cc23)ccc1-n1cnc(C)c1` [Example 9, N-[(5-chloro-1-benzothien-3-yl)methyl]-3-methoxy-4-(4-methyl-1H-imidazol-1-yl)benzamide] as the molecule, how does the IC50 read?
A: 158 nM

Q: For `COc1cc(C(=O)Nc2[nH]nc(C)c2-c2cccc(C(F)(F)F)c2)ccc1-n1cnc(C)c1` [Example 10, 3-methoxy-4-(4-methyl-1H-imidazol-1-yl)-N-{3-methyl-4-[3-(trifluoro-methyl)phenyl]-1H-pyrazol-5-yl}benzamide], which IC50 is on record?
A: 245 nM

Q: `COc1cc(C(=O)N2CC[C@@H](Oc3ccccc3C(F)(F)F)C2)ccc1-n1cnc(C)c1` [Example 11, 1-[2-methoxy-4-({(3R)-3-[2-(trifluoromethyl)phenoxy]pyrrolidin-1-yl}carbonyl)phenyl]-4-methyl-1H-imidazole] was tested. Which IC50 did it give?
A: 96 nM

Q: `COc1cc(C(=O)NCc2cc3cc(Cl)ccc3[nH]2)ccc1-n1cnc(C)c1` [Example 15, N-[(5-chloro-1H-indol-2-yl)methyl]-3-methoxy-4-(4-methyl-1H-imidazol-1-yl)benzamide] was tested. Which IC50 did it give?
A: 547 nM

Q: Which IC50 does the source give for `COc1cc(C(=O)N2CC(c3cccc(Cl)c3)C2)ccc1-n1cnc(C)c1` [Example 18, 1-(4-{[3-(3-chlorophenyl)azetidin-1-yl]carbonyl}-2-methoxy-phenyl)-4-methyl-1H-imidazole] here?
A: 660 nM

Q: For `COc1cc(C(=O)N2CCCC[C@H]2c2ccc(C(F)(F)F)cc2)ccc1-n1cnc(C)c1` [Example 23, (2S)-1-[3-methoxy-4-(4-methyl-1H-imidazol-1-yl)benzoyl]-2-[4-(trifluoro-methyl)phenyl] piperidine], which IC50 is on record?
A: 838 nM

Q: `COc1cc(C(=O)N2CC[C@H](Oc3ccccc3C(F)(F)F)C2)ccc1-n1cnc(C)c1` [Example 34, 1-[2-methoxy-4-({(3S)-3-[2-(trifluoro-methyl)phenoxy]pyrrolidin-1-yl}carbonyl)phenyl]-4-methyl-1H-imidazole, formic acid salt] was tested. Which IC50 did it give?
A: 297 nM

Same assay, conditions: Homo sapiens, CHO, read-out: GM Aβ 42B IC50, Geometric Mean of 2-8 Determinations; human WT-APP overexpressing CHO cells

Q: For `COc1cc(C(=O)NCCc2cccc(C#N)c2)ccc1-n1cnc(C)c1` [Example 1, N-[2-(3-cyanophenyl)ethyl]-3-methoxy-4-(4-methyl-1H-imidazol-1-yl)benzamide], which IC50 is on record?
A: 2920 nM

Q: For `COc1cc(C(=O)NCC(C)(O)c2ccc(Cl)cc2)ccc1-n1cnc(C)c1` (stereo not drawn) [Example 2, N-[2-(4-chlorophenyl)-2-hydroxypropyl]-3-methoxy-4-(4-methyl-1H-imidazol-1-yl)benzamide], which IC50 is on record?
A: 942 nM

Q: Which IC50 does the source give for `C#CCOc1cc(C(=O)NCCc2cccc(Cl)c2)ccc1-n1cnc(C)c1` [Example 3, N-[2-(3-chlorophenyl)ethyl]-4-(4-methyl-1H-imidazol-1-yl)-3-(prop-2-yn-1-yloxy)benzamide] here?
A: 341 nM

Q: With `COc1cc(C(=O)NCc2cc(-c3cccc(Cl)c3)no2)ccc1-n1cnc(C)c1` [Example 4, N-{[3-(3-chlorophenyl)isoxazol-5-yl]methyl}-3-methoxy-4-(4-methyl-1H-imidazol-1-yl)benzamide] as the molecule, how does the IC50 read?
A: 330 nM

Q: Which IC50 does the source give for `COc1cc(C(=O)NCc2nnc(-c3cccc(Cl)c3)o2)ccc1-n1cnc(C)c1` [Example 5, N-{[5-(3-chlorophenyl)-1,3,4-oxadiazol-2-yl]methyl}-3-methoxy-4-(4-methyl-1H-imidazol-1-yl)benzamide] here?
A: 1460 nM

Q: How did the IC50 turn out when `COc1cc(C(=O)NCCc2cccc(Cl)c2)ccc1-n1cnc(C)n1` [Example 6, N-[2-(3-chlorophenyl)ethyl]-3-methoxy-4-(3-methyl-[1,2,4]triazol-1-yl)benzamide] was run?
A: 4210 nM

Q: `Cc1cn(-c2ccc(C(=O)NCC3(c4cccc(C(F)(F)F)c4)CCOCC3)cc2F)cn1` [Example 7, 3-fluoro-4-(4-methyl-1H-imidazol-1-yl)-N-({4-[3-(trifluoromethyl)phenyl]tetrahydro-2H-pyran-4-yl}methyl)benzamide, formic acid salt] was tested. Which IC50 did it give?
A: 2190 nM

Q: For `Cc1cn(-c2ccc(C(=O)NCCc3cccc(Cl)c3)cc2F)cn1` [Example 8, N-[2-(3-chlorophenyl)ethyl]-3-fluoro-4-(4-methyl-1H-imidazol-1-yl)benzamide], which IC50 is on record?
A: 960 nM

Same assay, conditions: read-out: Aβ 42 IC50; Geometric mean of 2-8 determinations; human WT-APP overexpressing CHO cells

Q: `COc1cc(C(=O)NCc2cccc(C(F)(F)F)c2)ccc1-n1cnc(C)c1` [Example 14, 3-methoxy-4-(4-methyl-1H-imidazol-1-yl)-N-[3-(trifluoro-methyl)benzyl] benzamide] was tested. Which IC50 did it give?
A: 447 nM

Q: Which IC50 does the source give for `COc1cc(C(=O)NCc2cnc(-c3ccccc3)s2)ccc1-n1cnc(C)c1` [Example 16, 3-methoxy-4-(4-methyl-1H-imidazol-1-yl)-N-[(2-phenyl-1,3-thiazol-5-yl)methyl] benzamide] here?
A: 283 nM

Q: For `COc1cc(C(=O)NCc2noc3ccc(Cl)cc23)ccc1-n1cnc(C)c1` [Example 17, N-[(5-chloro-1,2-benz-isoxazol-3-yl)methyl]-3-methoxy-4-(4-methyl-1H-imidazol-1-yl) benzamide], which IC50 is on record?
A: 371 nM

Q: For `COc1cc(C(=O)NCC2(c3cccc(C(F)(F)F)c3)CCOCC2)ccc1-n1cnc(C)c1` [Example 19, 3-methoxy-4-(4-methyl-1H-imidazol-1-yl)-N-({4-[3-(tri-fluoromethyl)phenyl]tetrahydro-2H-pyran-4-yl}methyl) benzamide], which IC50 is on record?
A: 757 nM

Q: Which IC50 does the source give for `COc1cc(C(=O)N(C)Cc2cccc(C(F)(F)F)c2)ccc1-n1cnc(C)c1` [Example 20, 3-methoxy-N-methyl-4-(4-methyl-1H-imidazol-1-yl)-N-[3-(trifluoro-methyl)benzyl] benzamide] here?
A: 997 nM

Q: For `COc1cc(C(=O)NCCc2cccc(Cl)c2)ccc1-n1cnc(C)c1` [Example 21, N-[2-(3-chloro-phenyl)ethyl]-3-methoxy-4-(4-methyl-1H-imidazol-1-yl) benzamide], which IC50 is on record?
A: 629 nM

Q: How did the IC50 turn out when `COc1cc(C(=O)N(C)Cc2ccc3ccccc3c2)ccc1-n1cnc(C)c1` [Example 22, 3-methoxy-N-methyl-4-(4-methyl-1H-imidazol-1-yl)-N-(2-naphthyl-methyl) benzamide] was run?
A: 977 nM

Q: `COc1cc(C(=O)NCCc2cccc(C(F)(F)F)c2)ccc1-n1cnc(C)c1` [Example 24, 3-methoxy-4-(4-methyl-1H-imidazol-1-yl)-N-{2-[3-(tri-fluoromethyl)phenyl]ethyl} benzamide] was tested. Which IC50 did it give?
A: 438 nM

Q: Which IC50 does the source give for `COc1cc(C(=O)NCCc2c[nH]c3ccc(Cl)cc23)ccc1-n1cnc(C)c1` [Example 25, N-[2-(5-chloro-1H-indol-3-yl)ethyl]-3-methoxy-4-(4-methyl-1H-imidazol-1-yl) benzamide] here?
A: 195 nM

Q: How did the IC50 turn out when `COc1cc(C(=O)NC(C)(C)c2ccc(F)c(F)c2)ccc1-n1cnc(C)c1` [Example 26, N-[1-(3,4-difluoro-phenyl)-1-methylethyl]-3-methoxy-4-(4-methyl-1H-imidazol-1-yl) benzamide] was run?
A: 787 nM

Q: For `COc1cc(C(=O)NCC2(c3ccccc3)CCCC2)ccc1-n1cnc(C)c1` [Example 27, 3-methoxy-4-(4-methyl-1H-imidazol-1-yl)-N-[(1-phenyl-cyclopentyl)methyl] benzamide], which IC50 is on record?
A: 175 nM

Q: Which IC50 does the source give for `COc1cc(C(=O)NCC2(c3ccc(C(F)(F)F)cc3)CCOCC2)ccc1-n1cnc(C)c1` [Example 28, 3-methoxy-4-(4-methyl-1H-imidazol-1-yl)-N-({4-[4-(tri-fluoromethyl)phenyl]tetrahydro-2H-pyran-4-yl}methyl) benzamide] here?
A: 188 nM

Q: How did the IC50 turn out when `COc1cc(C(=O)NC(CCC(C)C)c2ccc(C(F)(F)F)cc2)ccc1-n1cnc(C)c1` (stereo not drawn) [Example 29, 3-methoxy-4-(4-methyl-1H-imidazol-1-yl)-N-{4-methyl-1-[4-(trifluoro-methyl)phenyl]pentyl} benzamide] was run?
A: 861 nM

Q: With `COc1cc(C(=O)NCC2(c3ccc(Cl)cc3)CC2)ccc1-n1cnc(C)c1` [Example 30, N-{[1-(4-chlorophenyl)cyclopropyl]methyl}-3-methoxy-4-(4-methyl-1H-imidazol-1-yl) benzamide] as the molecule, how does the IC50 read?
A: 231 nM

Q: Which IC50 does the source give for `COc1cc(C(=O)NCC2(c3cccc(C(F)(F)F)c3)CCC2)ccc1-n1cnc(C)c1` [Example 31, 3-methoxy-4-(4-methyl-1H-imidazol-1-yl)-N-({1-[3-(tri-fluoromethyl)phenyl]cyclobutyl}methyl) benzamide] here?
A: 298 nM

Q: Which IC50 does the source give for `COc1cc(C(=O)NC(C)(C)c2cccc(C(F)(F)F)c2)ccc1-n1cnc(C)c1` [Example 32, 3-methoxy-4-(4-methyl-1H-imidazol-1-yl)-N-{1-methyl-1-[3-(trifluoro-methyl)phenyl]ethyl} benzamide] here?
A: 619 nM

Q: Which IC50 does the source give for `COc1cc(C(=O)NCC2(c3ccc(C(F)(F)F)cc3)CCCC2)ccc1-n1cnc(C)c1` [Example 33, 3-methoxy-4-(4-methyl-1H-imidazol-1-yl)-N-({1-[4-(trifluoro-methyl)phenyl]cyclopentyl}methyl) benzamide, formic acid salt] here?
A: 139 nM

Same assay, conditions: read-out: Aβ 42 IC50; Geometric mean of 26 determinations; human WT-APP overexpressing CHO cells

Q: Which IC50 does the source give for `COc1cc(C(=O)NCC2(c3ccc(F)cc3)CCC2)ccc1-n1cnc(C)c1` [Example 13, N-{[1-(4-fluorophenyl)cyclobutyl]methyl}-3-methoxy-4-(4-methyl-1H-imidazol-1-yl) benzamide] here?
A: 261 nM

Same assay, conditions: read-out: Aβ 42 IC50; Geometric mean of at least 2 determinations; human WT-APP overexpressing CHO cells

Q: How did the IC50 turn out when “1-[4-({3-[(chloro- 5-methylphenoxy) methyl]azetidin- 1-yl}carbonyl)-2- methoxyphenyl]- 4-methyl-1H- imidazole trifluoroacetate salt [Example 139]” was run?
A: 557 nM
